From patent publication US20200270588A1, “GLUCOSYL TRANSFERASE POLYPEPTIDES AND METHODS OF USE” (Syngenta Participations AG, priority 2017, published 2020) come the findings set out here.

Assay in all cases: UDP-Glo glucosyl transferase assay, purified enzyme
Common to all, as to type: biochemical

In test [1] the target is T1, Zea mays bx8 glucosyl transferase (his tagged SEQ ID NO: 2) (Zea mays, UniProt Q8W2B7).
T1 construct: His tag (N); made in house; host or cells: E. coli BL21 (DE3), pET24a
T1 sequence (Q8W2B7 1-459): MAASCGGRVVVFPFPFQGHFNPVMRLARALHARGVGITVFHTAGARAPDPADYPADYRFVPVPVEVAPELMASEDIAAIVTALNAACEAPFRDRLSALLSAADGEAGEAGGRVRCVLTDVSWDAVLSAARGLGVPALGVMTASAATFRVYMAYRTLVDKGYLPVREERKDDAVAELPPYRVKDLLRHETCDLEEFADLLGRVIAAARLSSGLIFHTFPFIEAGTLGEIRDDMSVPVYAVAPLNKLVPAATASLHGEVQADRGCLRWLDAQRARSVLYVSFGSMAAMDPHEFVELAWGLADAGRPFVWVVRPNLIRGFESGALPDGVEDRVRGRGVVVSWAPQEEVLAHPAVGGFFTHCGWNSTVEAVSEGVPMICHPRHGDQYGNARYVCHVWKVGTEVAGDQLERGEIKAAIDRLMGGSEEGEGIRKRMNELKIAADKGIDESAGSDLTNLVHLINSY
The following applies: for Activity: herbicide 0.500 mM, N-terminally his tagged, limit of detection about 0.001. Here is the method: (§1) Glucosyl transferase activity is assayed via measurement of acceptor substrate-dependent production of UDP from ultrapure UDP-glucose using the Promega UDP-Glo™ method and according to the manufacturer's instructions. Assays are run in 96 well microtiter plates.
(§2) Enzyme, typically at a stock concentration of ˜2 mg/ml is diluted to an appropriate concentration in 50 mM K^+ Hepes buffer at pH7.5 containing 0.5 mg/mL bovine serum albumin (BSA) and 5 ul aliquots of this diluted enzyme added to each well of a Perkin Elmer white ½ area 96 well plate. […] Assays are run for an appropriate time (usually 10 to 60 min) so that the amount of UDP formed lies within the most nearly linear part of the UDP standard curve and are stopped with the addition and mixing of 25 ul UDP-Glo™ detection reagent (prepared as described below). Plates are then incubated at room temperature for 60 minutes and then read in a luminescence plate reader (Perkin Elmer Envision 2130 Multilabel Reader). A UDP standard curve is run alongside each set of assays and reagent blank control assays run with DMSO in place of test herbicide. Typically, 300 pmol of UDP corresponds to a Relative Luminescence Unit (RLU) reading of about 1.5E7 and the response curve between 0 and 600 pmol is fitted to a polynomial function (see for example FIG. 2).
(§3) The UDP-Glo™ reagents are made up and used according to the manufacturer's instructions. Thus, Nucleotide Detection Buffer and ATP are combined to make nucleotide detection reagent (NDR) dispensed into aliquots and frozen to be freshly thawed before use.
(§4) Km and kcat values in respect of UDP-glucose are derived by carrying out experiments to measure initial rates over a suitable range of concentrations of UDP glucose out at a fixed near saturating concentration of acceptor substrate. Best fit values of kcat, Km and kcat/Km are obtained by direct fitting of the data to the Michaelis-Menten equation using Graphpad Prism™ software.
The glucosyl transferase activities of the mutant bx8-derived polypeptides expressed in these strains were initially assayed versus herbicide V as described in Example 1. The partly purified C-terminally his tagged w/t bx8 enzyme (SEQ ID No: 2) catalyzed glucosyl transfer to herbicide V at a low rate estimated to be less than about 0.002/s at 1 mM herbicide V which, because of a relatively high background of UDP formation in the DMSO (no substrate reagent control) was difficult to quantify using the luminescence assay. Thus further assays were run by LC/MS using which technique the formation of an O-beta glucosyl glucoside of herbicide V could more easily be confirmed but only quantified in a relative sense. Thus the various derivatives of C-terminally his tagged Zea mays bx8 SEQ ID No:2 were cloned and expressed in E. coli BL21 (DE3) as described in Example 1 and assayed in plates as crude extracts, as in Example 2, but monitored by LCMS rather than the luminescence assay.
Assays were carried out as described in Example 1. Partly purified C-terminally his tagged w/t Larkspur enzyme (SEQ ID No 10 with a 6 amino acid C-terminal tag) catalyzed glucosyl transfer to herbicide V at a rate estimated to be about 0.0065/s/pmol at 1 mM herbicide V. The similarly-tagged w/t bx-like enzymes from rye (SEQ ID No 11) and from wheat (SEQ ID No 4) were also active but only at levels close to the detection limit at ˜0.0015/s/pmol. Further examples of assay results from further experiments are depicted in Table 14. […]

In test [2] the test system is Avena bx glucosyl transferase (SEQ ID NO 8). The note with it: herbicide 0.500 mM; limit of detection about 0.001. Here is the method: as §1, §2, §3, §4
(§5) DNA sequences, optimized for E. coli codon usage, corresponding to SEQ IDs 1-15, encoding BX8 and BX9 orthologue polypeptides derived from a range of species (as depicted in FIG. 1) were synthesized by Genewiz (South Plainfield, USA) with 5′ NdeI and 3′ XhoI restriction sites. The various orthologues were synthesized with either a N-terminal 6×His purification tag or C-terminal 6×His purification tag (i.e. tried both ways to achieve best expression of activity) and cloned into the E. coli expression plasmid pET24a (Novagen) via the NdeI and XhoI restriction sites. Expression, purification and assay was as described in Example 1.
(§6) Assays were carried out as described in Example 1. Partly purified C-terminally his tagged w/t Larkspur enzyme (SEQ ID No 10 with a 6 amino acid C-terminal tag) catalyzed glucosyl transfer to herbicide V at a rate estimated to be about 0.0065/s/pmol at 1 mM herbicide V. The similarly-tagged w/t bx-like enzymes from rye (SEQ ID No 11) and from wheat (SEQ ID No 4) were also active but only at levels close to the detection limit at ˜0.0015/s/pmol. Further examples of assay results from further experiments are depicted in Table 14. All of the proteins were C-terminally his tagged versions of the sequences referenced except for the Zea mays bx8 SEQ ID NO: 2 which was N-terminally his tagged.

The subject of test [3] is wheat bx glucosyl transferase (SEQ ID NO 4). The following applies: for Activity: herbicide 0.500 mM, limit of detection about 0.001. Here is the method:
as §1, §2, §3, §4, §5, §6

Test [4] has as its target T2, Zea mays bx9 glucosyl transferase (C-terminally his tagged SEQ ID NO: 1) (Zea mays, UniProt B4G072).
T2 construct: His tag (C); made in house; host or cells: E. coli BL21 (DE3), pET24a
T2 sequence (B4G072 1-462): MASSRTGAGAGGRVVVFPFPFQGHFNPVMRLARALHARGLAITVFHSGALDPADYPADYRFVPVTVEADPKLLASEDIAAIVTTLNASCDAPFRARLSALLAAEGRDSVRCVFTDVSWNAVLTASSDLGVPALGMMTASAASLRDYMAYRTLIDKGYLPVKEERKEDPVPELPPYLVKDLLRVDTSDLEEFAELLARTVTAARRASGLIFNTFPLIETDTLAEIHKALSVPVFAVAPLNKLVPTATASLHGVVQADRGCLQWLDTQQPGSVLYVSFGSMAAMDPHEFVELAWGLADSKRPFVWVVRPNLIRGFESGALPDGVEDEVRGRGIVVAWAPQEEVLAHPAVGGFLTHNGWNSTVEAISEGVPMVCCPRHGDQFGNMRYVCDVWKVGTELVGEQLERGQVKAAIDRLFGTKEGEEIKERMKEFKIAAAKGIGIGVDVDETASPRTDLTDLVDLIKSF

[5] abbreviates: herbicide 0.500 mM, limit of detection about 0.001.
Where [6] appears, read: herbicide mM: V 0.300, VI 0.250, VII 0.210, IV, VIII, XI, XXI, XX, XVIII, XVI, XV, XIV 0.200, others 1.000.
The mark [7] stands for this setting: 0.5 mM UDP-glucose, 25 C, pH 7.5, DMSO reagent blank as control.
[8] abbreviates: control = inactive H24A mutant of bx9 (asterisk).

The structures appear in SMILES notation. Values joined by “and” are separate entries in the source; they are usually repeats but may differ in a detail not shown here. Equal values may be shown once.

Take `CN1CC(O)N(c2cc(C(F)(F)F)c(Cl)cn2)C1=O` (stereo not drawn) [XI]: the Activity in test [1] is reported as 0.001 pmol/sec/pmol enzyme; in test [2], 0.002 pmol/sec/pmol enzyme; in test [3], 0.001 pmol/sec/pmol enzyme; in test [4] (setting [5]), 0.000 pmol/sec/pmol enzyme; in test [4] (setting [6]) it was 0.000 pmol/sec/pmol enzyme.

On to `Cc1cnc(N2C(=O)N(C)CC2O)cc1C(F)(F)F` (stereo not drawn) [XVIII], for which the Activity turned out to be 0.001 pmol/sec/pmol enzyme in test [1]; 0.003 pmol/sec/pmol enzyme in test [2]; 0.000 pmol/sec/pmol enzyme in test [3]; 0.002 pmol/sec/pmol enzyme in test [4] (setting [5]); 0.001 pmol/sec/pmol enzyme in test [4] (setting [6]). The kcat in test [4] (setting [7]) was found to be 0.0040 s⁻¹.

Regarding `CON1C(=O)N(c2cc(C(F)(F)F)ccn2)C(O)[C@@H]1C` (stereo partly drawn) [Compound VI], the Activity in test [1] is 0.000 pmol/sec/pmol enzyme; in test [2] it was 0.002 pmol/sec/pmol enzyme; in test [3] it was 0.000 pmol/sec/pmol enzyme; in test [4] (setting [5]), 0.013 pmol/sec/pmol enzyme; in test [4] (setting [6]), 0.012 pmol/sec/pmol enzyme. The kcat in test [4] (setting [7]) was 0.037 s⁻¹ and 0.044 s⁻¹; in test [4] (setting [8]), 0.0430 s⁻¹.

For `CN1CC(O)N(c2cc(C(F)(F)F)ccn2)C1=O` (stereo not drawn) [Compound V], the “rate of glucosyl transfer” value in test [1] (1 mM herbicide V, partly purified C-terminally his tagged enzyme) was “less than 0.002 /s”; in test [3] (herbicide V, close to the detection limit), approximately 0.0015 s⁻¹ pmol⁻¹. The Activity in test [1] amounted to 0.000 pmol/sec/pmol enzyme; in test [2] it was 0.002 pmol/sec/pmol enzyme; in test [3] it was 0.001 pmol/sec/pmol enzyme; in test [4] (setting [5]), 0.005 pmol/sec/pmol enzyme; in test [4] (setting [6]), 0.005 pmol/sec/pmol enzyme. Besides, the kcat in test [4] (setting [7]) was 0.012 s⁻¹ and 0.021 s⁻¹; in test [4] (setting [8]), 0.0181 s⁻¹.
